Values quoted from earlier work as cited in publication PMC6343925, “Cholesterol re-organisation and lipid de-packing by arginine-rich cell penetrating peptides: Role in membrane translocation” (PLoS ONE, 2019).
No end group written: not given here.

Conditions: membranes contained PG; same experimental approach

| translocation into LUVs | Compound |
| --- | --- |
| able to translocate | N=C(N)NCCC[C@H](NC(=O)[C@H](CCCNC(=N)N)NC(=O)[C@H](CCCNC(=N)N)NC(=O)[C@H](CCCNC(=N)N)NC(=O)[C@H](CCCNC(=N)N)NC(=O)[C@H](CCCNC(=N)N)NC(=O)[C@H](CCCNC(=N)N)NC(=O)[C@H](CCCNC(=N)N)NC(=O)[C@@H](N)CCCNC(=N)N)C(N)=O [R9, Nona-arginine] |
| able to translocate | RRWWRRWRR-NH2 [RW9] |
